Active and inactive are the calls of the source. No cut-off for these calls is given here.
Experiments:
[1] = target: T1, Retinoic acid receptor beta (Homo sapiens) (UniProt P10826); experiment: Transactivation activity at retinoic acid receptor beta.
T1 sequence (whole entry): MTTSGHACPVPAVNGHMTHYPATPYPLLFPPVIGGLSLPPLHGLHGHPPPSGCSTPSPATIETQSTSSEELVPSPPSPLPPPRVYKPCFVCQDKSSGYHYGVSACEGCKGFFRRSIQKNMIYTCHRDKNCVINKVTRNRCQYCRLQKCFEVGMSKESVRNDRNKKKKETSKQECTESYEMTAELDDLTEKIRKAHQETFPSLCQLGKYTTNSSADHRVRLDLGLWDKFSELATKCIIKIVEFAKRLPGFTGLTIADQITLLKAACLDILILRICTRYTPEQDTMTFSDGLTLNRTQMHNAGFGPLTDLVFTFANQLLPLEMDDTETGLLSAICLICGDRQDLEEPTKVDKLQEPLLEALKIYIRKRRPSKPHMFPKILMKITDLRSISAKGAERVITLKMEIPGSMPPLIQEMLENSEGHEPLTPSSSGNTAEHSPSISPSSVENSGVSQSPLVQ

[2] = target: T2, Retinoic acid receptor alpha (Homo sapiens) (UniProt P10276); experiment: Transcriptional activation activity against retinoic acid receptor RAR alpha; Not active
T2 sequence (whole entry): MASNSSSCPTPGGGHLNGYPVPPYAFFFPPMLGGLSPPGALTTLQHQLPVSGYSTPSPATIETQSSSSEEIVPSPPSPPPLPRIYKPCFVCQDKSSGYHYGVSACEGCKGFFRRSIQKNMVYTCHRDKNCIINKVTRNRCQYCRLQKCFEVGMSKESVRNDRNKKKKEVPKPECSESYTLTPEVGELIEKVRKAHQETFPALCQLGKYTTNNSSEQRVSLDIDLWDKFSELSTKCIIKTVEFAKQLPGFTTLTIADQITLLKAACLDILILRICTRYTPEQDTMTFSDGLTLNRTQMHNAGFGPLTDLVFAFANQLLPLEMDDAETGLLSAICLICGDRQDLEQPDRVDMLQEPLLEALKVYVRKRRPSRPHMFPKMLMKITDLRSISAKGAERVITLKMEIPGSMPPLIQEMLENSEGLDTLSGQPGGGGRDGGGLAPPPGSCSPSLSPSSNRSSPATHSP

[3] = target: T2, Retinoic acid receptor alpha (Homo sapiens); experiment: Maximum retinoic acid receptor (RAR)-alpha transactivation activity relative to retinoic acid at 10e-6 M
[4] = target: T1, Retinoic acid receptor beta (Homo sapiens); experiment: Maximum retinoic acid receptor (RAR)-beta transactivation activity relative to retinoic acid at 10e-6 M
[5] = target: T2, Retinoic acid receptor alpha (Homo sapiens); experiment: Transcriptional activation activity against retinoic acid receptor RAR alpha
[6] = target: T3, Retinoic acid receptor gamma (Homo sapiens) (UniProt P13631); experiment: Transcriptional activation activity against retinoic acid receptor RAR gamma; Not active
T3 sequence (whole entry): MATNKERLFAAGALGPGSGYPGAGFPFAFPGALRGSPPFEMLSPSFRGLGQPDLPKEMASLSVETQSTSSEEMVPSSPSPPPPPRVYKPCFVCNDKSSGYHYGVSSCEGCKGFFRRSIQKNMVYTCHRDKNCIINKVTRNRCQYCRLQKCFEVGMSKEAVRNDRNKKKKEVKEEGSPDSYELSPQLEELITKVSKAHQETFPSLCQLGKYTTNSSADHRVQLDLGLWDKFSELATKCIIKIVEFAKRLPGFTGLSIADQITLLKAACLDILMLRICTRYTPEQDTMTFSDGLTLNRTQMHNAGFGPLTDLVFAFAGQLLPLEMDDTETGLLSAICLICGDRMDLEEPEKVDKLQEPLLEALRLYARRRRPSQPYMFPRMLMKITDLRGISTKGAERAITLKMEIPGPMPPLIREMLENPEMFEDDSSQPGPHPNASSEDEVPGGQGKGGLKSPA

[7] = target: T1, Retinoic acid receptor beta (Homo sapiens); experiment: Transcriptional activation activity against retinoic acid receptor RAR beta; Not active

Structure (SMILES)	EC50 ratio [1]	EC50 ratio [2]	Max [3] [%]	Max [4] [%]	EC50 ratio [5]	EC50 ratio [6]	EC50 ratio [7]
Cc1cc2c(cc1C(O)c1ccc3cc(C(=O)O)ccc3c1)C(C)(C)CCC2(C)C (stereo unspecified)	100	inactive	0	96			
CC1(C)CCC(C)(C)c2cc(C(=O)c3ccc4cc(C(=O)O)ccc4c3)c(F)cc21	15		34	81	25		
COc1c(C(=O)c2ccc3c(c2)C(C)(C)CCC3(C)C)ccc2cc(C(=O)O)ccc12		inactive	0	0		inactive	inactive
CC1(C)CCC(C)(C)c2cc(C(O)c3ccc4cc(C(=O)O)ccc4c3)c(F)cc21 (stereo unspecified)	133	inactive	0	30			
CC1(C)CCC(C)(C)c2cc(C(=O)/C=C/c3ccc(C(=O)O)cc3)ccc21	1.2				0.7		
CC1(C)CCC(C)(C)c2cc(S(=O)(=O)c3ccc4cc(C(=O)O)ccc4c3)ccc21	133	inactive	0	32			
CC1(C)CCC(C)(C)c2cc(S(=O)(=O)/C=C/c3ccc(C(=O)O)cc3)ccc21	200	inactive	0	35			
Cc1cc2c(cc1C(=O)c1ccc3cc(C(=O)O)ccc3c1)C(C)(C)CCC2(C)C	25		26	81	25		
CC1(C)CCC(C)(C)c2cc([S+]([O-])c3ccc4cc(C(=O)O)ccc4c3)ccc21 (stereo unspecified)	167	inactive	0	52			
CC1(C)CCC(C)(C)c2c1cc(O)c(C(=O)c1ccc3cc(C(=O)O)ccc3c1)c2F	6.7		46	87	100		
CC1(C)CCC(C)(C)c2cc(Oc3ccc4cc(C(=O)O)ccc4c3)ccc21	20		56	120	63		
CC1(C)CCC(C)(C)c2c(F)cc(C(O)c3ccc4cc(C(=O)O)ccc4c3)cc21 (stereo unspecified)		inactive	0	0		inactive	inactive
CC1(C)CCC(C)(C)c2cc([S+]([O-])/C=C/c3ccc(C(=O)O)cc3)ccc21 (stereo unspecified)	40		42	96	38		
CC1(C)CCC(C)(C)c2cc(Nc3ccc4cc(C(=O)O)ccc4c3)ccc21	17		27	92	25		
CC1(C)CCC(C)(C)c2cc(C(O)c3ccc4cc(C(=O)O)ccc4c3)c(O)cc21 (stereo unspecified)		inactive	0	18			inactive
CC1(C)CCC(C)(C)c2cc(S/C=C/c3ccc(C(=O)O)cc3)ccc21	0.8		118	158	1.3		
CC1(C)CCC(C)(C)c2cc(C(=O)c3ccc4cc(C(=O)O)ccc4c3)c(O)cc21	7.5		44	76	25		
CC1(C)CCC(C)(C)c2cc(Sc3ccc4cc(C(=O)O)ccc4c3)ccc21	10		45	88	25		
CC1(C)CCC(C)(C)c2c1ccc(C(O)c1ccc3cc(C(=O)O)ccc3c1)c2F (stereo unspecified)	133	inactive	0	74			
CC1(C)CCC(C)(C)c2cc(C(O)c3ccc4cc(C(=O)O)ccc4c3)ccc21 (stereo unspecified)			0	77			
COc1cc2c(cc1C(=O)c1ccc3cc(C(=O)O)ccc3c1)C(C)(C)CCC2(C)C	14		23	61	8		
COc1c(C(=O)c2ccc3cc(C(=O)O)ccc3c2)ccc2c1C(C)(C)CCC2(C)C		inactive	0	0		inactive	inactive
CC1(C)CCC(C)(C)c2cc(C(=O)c3ccc4cc(C(=O)O)ccc4c3O)ccc21		inactive	0	0		inactive	inactive
CC1(C)CCC(C)(C)c2c(F)cc(C(=O)c3ccc4cc(C(=O)O)ccc4c3)cc21	4		63	81	10		
